# Source: patent publication US10980822B2, “Medicinal composition comprising SGLT-2 inhibitor and angiotensin receptor blocker” (AUTOTELIC BIO INC., priority 2017, dated 2021)
# Key:
# [1] = tested on: spontaneously hypertensive rats (SHRs); assay: 2-week evaluation of blood pressure lowering effect (non-invasive tail blood pressure, CODA-6); assay type: in vivo, rat; details: olmesartan medoxomil 1, valsartan 4, telmisartan 4, dapagliflozin (as propylene glycol hydrate) 1 mg/kg/day; for Systolic blood pressure immediately before administration: 10-week-old SHR, baseline, mean of 5 rats; for Size of blood pressure reduction / Systolic blood pressure at 14th day after administration: SHR; for Size of blood pressure reduction: 14th day versus before administration; for Systolic blood pressure at 14th day after administration: once daily for 14 days, measured 2 hours after dosing
# Protocol: The SHR rats are rats derived from Wistar Kyoto WKY) rats with normal blood pressure, and are rats that spontaneously develop hypertension with aging without any artificial treatment. […] The blood pressure in the experimental animals was measured using a CODA-6 system (Kent Scientific Corp.) which is a non-invasive blood pressure (NIBP) measurement system. […] The rats were divided into total 7 groups according to the kind of drug to be administered, and five rats were randomly assigned to each group. The groups administered with each drug are as follows: (2) a group administered with 1 mg/kg/day of olmesartan medoxomil alone; (3) a group administered with 4 mg/kg/day of valsartan alone; (4) a group administered with 4 mg/kg/day of telmisartan alone; (5) a group administered with a combination of 1 mg/kg/day of olmesartan medoxomil+1 mg/kg/day of dapagliflozin; (6) a group administered with a combination of 4 mg/kg/day of valsartan+1 mg/kg/day of dapagliflozin; (7) a group administered with a combination of 4 mg/kg/day of telmisartan+1 mg/kg/day of dapagliflozin. (*In this Example, a dapagliflozin propylene glycol hydrate corresponding to 1 mg of dapagliflozin was administered actually). For drug administration, each drug was administered to each rat once a day at a predetermined dose at the same time every morning. Considering that the amounts of antihypertensive drugs used in humans are different, the antihypertensive drugs were administered at different doses.
# SHR rats = assay: 4-week evaluation of blood pressure lowering effect (non-invasive tail systolic and diastolic blood pressure); assay type: in vivo, rat; details: for Diastolic blood pressure at 1st week after administration / Diastolic blood pressure at 2nd week after administration / Diastolic blood pressure at 3rd week after administration / Diastolic blood pressure at 4th week after administration / Systolic blood pressure at 1st week after administration / Systolic blood pressure at 2nd week after administration / Systolic blood pressure at 3rd week after administration / Systolic blood pressure at 4th week after administration: oral once daily; for Diastolic blood pressure immediately after administration / Systolic blood pressure immediately after administration: oral, mean of 8 rats
# Protocol: As experimental animals, 6-week-old male SHR rats were used (however, WKY rats were used as a normal control). A method for measurement of blood pressure is as follows: […] The rats were divided into total 7 groups according to the kind of drug to be administered, and eight rats were randomly assigned to each group. The groups administered with each drug are as follows: (3) a group administered with test substance 1 (G3): a group administered with a combination of 2 mg/kg/day of olmesartan medoxomil+1 mg/kg/day of dapagliflozin; (4) a group administered with test substance 2 (G4): a group administered with a combination of 2 mg/kg/day of olmesartan medoxomil+3 mg/kg/day of dapagliflozin; (5) a group administered with comparative substance 1 (G5): a group administered with 2 mg/kg/day of olmesartan medoxomil alone; (6) a group administered with comparative substance 2 (G6): a group administered with 1 mg/kg/day of dapagliflozin alone; (7) a group administered with […]: a group administered with 3 mg/kg/day of dapagliflozin alone. (* In this Experimental Example, dapagliflozin was administered in an anhydride form, not a solvate form). For drug administration, each drug was forcibly administered into the rat's stomach through a disposable syringe with an oral zonde at a predetermined dose at the same time every day. As test substances, olmesartan medoxomil was administered, and then immediately dapagliflozin was administered. The doses of the antihypertensive drug and the antidiabetic drug were determined considering the doses to be applied in clinical practice.
# [2] = SHR, 1st to 4th week, olmesartan medoxomil 2 mg/kg/day with (G3) or without (G5) dapagliflozin 1 mg/kg/day
# [3] = SHR, olmesartan medoxomil 2 mg/kg/day and/or dapagliflozin 1 mg/kg/day (G3, G5, G6)
# [4] = p<0.01 at 1st, 2nd, 3rd and 4th week, olmesartan medoxomil 2 mg/kg/day with (G3) or without (G5) dapagliflozin 1 mg/kg/day
# [5] = SHR, dapagliflozin 3 mg/kg/day with (G4) or without (G7) olmesartan medoxomil 2 mg/kg/day
SMILES,Systolic blood pressure immediately before administration [1] [mmHg],Size of blood pressure reduction [1] [mmHg],Systolic blood pressure at 14th day after administration [1] [mmHg],Diastolic blood pressure at 1st week after administration (SHR rats; [3]) [mmHg],Diastolic blood pressure at 2nd week after administration (SHR rats; [3]) [mmHg],Diastolic blood pressure at 3rd week after administration (SHR rats; [3]) [mmHg],Diastolic blood pressure at 4th week after administration (SHR rats; [3]) [mmHg],Systolic blood pressure at 1st week after administration (SHR rats; [3]) [mmHg],Systolic blood pressure at 2nd week after administration (SHR rats; [3]) [mmHg],Systolic blood pressure at 3rd week after administration (SHR rats; [3]) [mmHg],Systolic blood pressure at 4th week after administration (SHR rats; [3]) [mmHg],Diastolic blood pressure immediately after administration (SHR rats; [3]) [mmHg],Systolic blood pressure immediately after administration (SHR rats; [3]) [mmHg],other results
"CCCc1nc(C(C)(C)O)c(C(=O)OCc2oc(=O)oc2C)n1Cc1ccc(-c2ccccc2-c2nnn[nH]2)cc1 [Olmesartan medoxomil, olmesartan medoxomil]",202,39,163,127,153,153,172,159,181,178,190,140,171,Range of mean diastolic blood pressure (SHR rats; [2]): 127 to 172 mmHg; Range of mean systolic blood pressure (SHR rats; [2]): 159 to 190 mmHg; Mean diastolic blood pressure compared with negative control group (G2) (SHR rats; [4]): statistically significantly lower; Mean systolic blood pressure compared with negative control group (G2) (SHR rats; [4]): statistically significantly lower
"CCCc1nc2c(C)cc(-c3nc4ccccc4n3C)cc2n1Cc1ccc(-c2ccccc2C(=O)O)cc1 [Telmisartan, telmisartan]",203,35,168,–,–,–,–,–,–,–,–,–,–,–
"CCCCC(=O)N(Cc1ccc(-c2ccccc2-c2nnn[nH]2)cc1)[C@H](C(=O)O)C(C)C [Valsartan, valsartan]",200,30,170,–,–,–,–,–,–,–,–,–,–,–
CCOc1ccc(Cc2cc([C@@H]3O[C@H](CO)[C@@H](O)[C@H](O)[C@H]3O)ccc2Cl)cc1 [dapagliflozin],–,–,–,154,179,175,187,185,213,204,211,142,172,Diastolic blood pressure at 1st week after administration (SHR rats; [5]): 149 mmHg; Diastolic blood pressure at 2nd week after administration (SHR rats; [5]): 188 mmHg; Diastolic blood pressure at 3rd week after administration (SHR rats; [5]): 204 mmHg; Diastolic blood pressure at 4th week after administration (SHR rats; [5]): 186 mmHg; Systolic blood pressure at 1st week after administration (SHR rats; [5]): 189 mmHg; Systolic blood pressure at 2nd week after administration (SHR rats; [5]): 219 mmHg; Systolic blood pressure at 3rd week after administration (SHR rats; [5]): 228 mmHg; Systolic blood pressure at 4th week after administration (SHR rats; [5]): 212 mmHg; Diastolic blood pressure immediately after administration (SHR rats; [5]): 139 mmHg; Systolic blood pressure immediately after administration (SHR rats; [5]): 172 mmHg
